In patent US20030212014A1 (priority 2000, published 2003):

How the values were obtained:
[1] = tested on: acetyl CoA carboxylase (ACC); experiment: Acetyl CoA carboxylase activity in HUVEC incubated with AICAR; format: cell-based, human; settings: 2 mM AICAR
Experimental: As previously mentioned, AMPK increases fatty acid oxidation in both liver and skeletal muscle by phosphorylation and inhibition of acetyl CoA carboxylase. We wanted to test if this effect of AMPK is also present in endothelial cells. […] A significant decrease was seen within the first 30 minutes of incubation (FIG. 3). ACC activity went down from 163.1±27.0 pmol/min/mg protein at 0 minutes to 61.1±1.1 at 30 minutes (P=0.004), 73.0 ±12.4 at 60 minutes and 51.2±5.0 at 120 minutes (P=0.015). As previously described, ACC activation increases malonyl CoA levels and this in turn inhibits CPT1, the enzyme responsible for the uptake of long chain fatty acyl CoA into the mitochondria where they are oxidized. […] Fatty acid oxidation was measured by the formation of titrated water (^3H2O) in cells incubated with ^3H-palmitate. A significant increase was seen only after a 2-hour incubation (P=0.002). […] (See Table 1A, FIG. 6.) Glucose and fatty acid oxidation, glucose uptake and lactate and pyruvate release were determined in the absence and presence of […] carnitine.
The results described in other tissues are seen in the endothelial cells. […] The presence of ACC is shown by the substantial increase in enzyme activity when 10 mM citrate is present vs. 0 mM citrate. Citrate allosterically activates ACC, but not other enzymes, such as propionyl CoA carboxylase and pyruvate carboxylase, which could also use HCO3^−as substrate. Thus, the increase in radioactive HCO3^−use in the presence of citrate is a reflection of ACC activity only. Similar to AMPK, the activity of ACC is lower in endothelial cells than in skeletal muscle and liver.

human retinal pericytes = experiment: Ceramide and DAG levels by diacylglycerol kinase method in pericytes; format: cell-based
Experimental: Apoptosis was induced by incubating the cells with a medium containing 0-0.5 mM palmitic acid for 3 days. Apoptotic cells were determined by conventional TUNEL staining. Ceramide and DAG levels were measured the by diacylgycerol kinase method using 32P-ATP.

HUVEC [2] = experiment: HUVEC metabolism after 16 hrs incubation with 30 mM glucose; format: cell-based, human; settings: 1 mM AICAR in 30 mM glucose
Experimental: Incubation of HUVEC with 30 mM glucose for 16 hrs decreased free fatty oxidation by 50% (FIG. 7A) and increased free fatty acid incorporation into diacylglycerol (DAG) (i.e., esterification) by 40% (FIG. 7B). These changes were accompanied by a significant decline in mitochondria membrane potential (FIG. 7C).

HUVEC [3] = experiment: Fatty acid metabolism and malonyl CoA in HUVEC after 24 hr in 30 mM glucose; format: cell-based, human; settings: 30 mM glucose + 1 mM AICAR
Experimental: Fatty acid oxidation was measured over 2 hours after 24 hr prelabeling with ^3H-palmitate. Data are means ±SD (n=4−6). *P<0.05; vs 5 mM glucose. † p<0.05; vs 30 mM glucose;
(§1) We have previously shown that incubation of HUVEC for 2 hr in media containing 30 mM vs 5 mM glucose causes no changes in AMPK activity, malonyl CoA concentration, fatty acid oxidation, or lactate release. […] In addition, it impaired Akt phosphorylation in the presence of insulin (FIG. 11). […] AMPK activity tended to be higher after 24 h of incubation with 30 mM glucose; however, whether it was inappropriately low, in light of the decrease in ATP content (and presumably an increased AMP/ATP ratio), was not ascertained.

Akt = Akt phosphorylation in the presence of insulin in HUVEC; format: cell-based, human; settings: 30 mM glucose + 1 mM AICAR, 24 h
Experimental: Results are means±SE (n=4) *p<0.05 vs 5 mM glucose. † p<0.05 vs 30 mM glucose;
as §1

juvenile rats = experiment: Chronic intermittent AICAR treatment of juvenile rats; format: in vivo, rat
Experimental: This dose distributed in the extracellular space of the rat (approx. 20 ml/100g b. w.) yields a concentration in the extracellular space of approximately 5 mM.
Referring to FIG. 19, it can be seen that food intake was diminished by approximately 25% over the first 24 hrs following each injection. The rats appear to compensate by eating more on the following day. […] Cumulative net food intake was diminished only modestly (about 3%) during all long-term studies.
These include the GLUT 4 glucose transporter, hexokinase and various mitochondrial enzymes including cytochrome C oxidase and citrate synthase. […] Also we found no increase in muscle glycogen.

[4] = tested on: liver ACC activity and malonyl CoA; experiment: ACC activity and malonyl CoA in liver two hours after AICAR injection; format: in vivo, rat
high-fat fed (HFF) rats = experiment: Euglycemic hyperinsulinemic clamp in HFF rats 24 h after AICAR injection; format: in vivo, rat
Experimental: They were then returned to their cages and given a high-fat meal. […] To avoid the possible effects of a reduced caloric intake, the HFF-Con animals were pair-fed with HFF-AIC rats. 24 h after the injection, and after a 5-7 h fasting period, the rats were submitted to an euglycemic hyperinsulinemic clamp, to determine the whole body insulin sensitivity.

rats = settings: cited from earlier work
[5] = 1 mM AICAR vs 0.5 mM palmitate alone
[6] = 250 mg/kg, 3 days/wk over 106 days
[7] = 12-week study period, not statistically significant
[8] = clamp 24 h after 250 mg/kg AICAR

NC(=O)c1ncn([C@@H]2O[C@H](CO)[C@@H](O)[C@H]2O)c1N [AICAR, 5-aminoimidizole-4-carboxamide riboside]
ACC activity ([1]; at 30 minutes): 61.1±1.1 pmol/min/mg protein
ACC activity ([1]; at 60 minutes): 73.0 ±12.4 pmol/min/mg protein
ACC activity ([1]; at 120 minutes): 51.2±5.0 pmol/min/mg protein
DAG levels (human retinal pericytes; 0.5 mM palmitate + 1 mM AICAR): 24±5 nmol/mg protein
ceramide levels (human retinal pericytes; 0.5 mM palmitate + 1 mM AICAR): 3.8±1 nmol/mg protein
decrease in DAG levels (human retinal pericytes; [5]): 50%
decrease in ceramide levels (human retinal pericytes; [5]): 60%
decline in mitochondria membrane potential caused by 30 mM glucose (HUVEC [2]): prevented all these changes
decrease in free fatty acid oxidation caused by 30 mM glucose (HUVEC [2]): prevented all these changes
increase in free fatty acid incorporation into diacylglycerol caused by 30 mM glucose (HUVEC [2]): prevented all these changes
concentration of malonyl-CoA (HUVEC [3]): even lower than that in cells incubated with 5 mM glucose
diminished fatty acid oxidation caused by 30 mM glucose (HUVEC [3]): completely prevented
increased incorporation of radioactive glucose and palmitate into diacylglycerol caused by 30 mM glucose (HUVEC [3]): completely prevented
impaired Akt phosphorylation in the presence of insulin caused by 30 mM glucose (Akt): completely prevented
decrease in food intake over the first 24 hrs following each injection (juvenile rats; 250 mg/kg 3 times/week, chow diet): approximately 25%
hepatic enlargement (juvenile rats; 250 mg/kg intermittent regimen): no hepatic enlargement
hepatocellular damage, morphologically (light microscope) (juvenile rats; 250 mg/kg intermittent regimen): no evidence of hepatocellular damage
decrease in mass of intra-abdominal (retroperitoneal, mesenteric, epididymal) fat depots (juvenile rats; 250 mg/kg s.c. M, W, F for 25 days): 20-40%
GLUT 4, UCP3, cytochrome C oxidase (RT-PCR) and citrate synthase activity in muscle (juvenile rats; [6]): no changes
muscle glycogen (juvenile rats; [6]): no increase
weights of the heart, liver or other organs (juvenile rats; 250 mg/kg, at 25 days): no differences
muscle mass (juvenile rats; 250 mg/kg, at 106 days): increase in muscle mass is suggested
decrease in food intake (juvenile rats; [7]): 3-4%
weight gain less than control (juvenile rats; [7]): 32 g
decrease in plasma triglycerides (juvenile rats; 25 days treatment, 250 mg/kg): 40%
plasma leptin (juvenile rats; 25 days treatment, 24 hrs following the last injection): significantly diminished
decrease in cumulative net food intake (juvenile rats; all long-term studies): about 3%
glucose and insulin levels during an oral glucose tolerance test (juvenile rats; chronic AICAR treatment): lower
plasma insulin levels (juvenile rats; chronic AICAR treatment): significantly diminished
tolerability / gross toxicity (juvenile rats; rat, in vivo, sc, 250 mg/kg): without evidence of gross toxicity
dose at which maximal effect on liver ACC activity and malonyl CoA was observed [4]: 500 mg/kg
ACC activity in liver ([4]; 250 mg/kg): significantly diminished
malonyl CoA concentration in liver ([4]; 250 mg/kg): significantly diminished
levels of muscle triglycerides or long chain fatty acyl CoA (LCFACoA) (high-fat fed (HFF) rats; after clamp): no significant change
decrease in liver malonyl-CoA (high-fat fed (HFF) rats; after clamp, vs HFF-Con): 21%
reduction of liver triglycerides accumulation (high-fat fed (HFF) rats; after clamp, vs HFF-Con): 33%
food eaten overnight (high-fat fed (HFF) rats; after single 250 mg/kg s.c. injection, high-fat meal): minor reduction
reduction of malonyl-CoA in red muscle (high-fat fed (HFF) rats; after the clamp, vs HFF-Con): 44%
basal plasma glucose (hyperglycemia caused by high-fat feeding) (high-fat fed (HFF) rats; basal state, 24 h after AICAR): decreased the hyperglycemia
other basal plasma parameters (insulin, FFA, triglycerides) (high-fat fed (HFF) rats; basal state, vs HFF-Con): did not alter
Rd (high-fat fed (HFF) rats; [8]): slight but not significant increase
increase in glucose infusion rate (GIR) (high-fat fed (HFF) rats; [8]): 50%
HGO under insulin (high-fat fed (HFF) rats; clamp 24 h after 250 mg/kg AICAR, p>0.05 vs. Chow): close to the normal value
increase in Rg' (rate of glucose uptake) in white muscle (high-fat fed (HFF) rats; clamp 24 h after AICAR): 79%
Rg' in red muscle (high-fat fed (HFF) rats; clamp 24 h after AICAR, p=0.085): tendency of increased
insulin-stimulated glucose incorporation into glycogen (high-fat fed (HFF) rats; white and red muscle): significantly increased
blood glucose levels (rats; 500 mg/kg/twice daily, control and diabetic rats (U.S. Pat. No. 5,658,889)): lowers
liver size (rats; 1000 mg/kg body weight daily for 28 days (Winder)): hepatic enlargement
muscle glycogen (rats; 1000 mg/kg/day for 28 days (Winder et al.)): increased
